What was measured:
[1] = Evaluation of copper chelating action by LC-MS after addition of CuCl2; type: binding; conditions: for copper chelating action: 10 mM compound in methanol, aqueous CuCl2 added to final 100 mM, shaken at 30° C. for 60 minutes, LC-MS; for peak of the ion of the compound (free compound) in the sample in which a copper ion was added / peak of the ion of the complex of the compound and a copper ion in the sample in which a copper ion was added: LC-MS positive mode, CuCl2 100 mM, 30° C., 60 minutes; for peak of the ion of the compound (free compound) in the sample in which a copper ion was added: m/z 379.00 for (1a), m/z 397.00 for (2a); for peak of the ion of the complex of the compound and a copper ion in the sample in which a copper ion was added: m/z 441.00 for (1a), m/z 459.00 for (2a)
Description: (Method for Evaluating Copper Chelating Action)
An aqueous CuCl2 solution was added to a methanol solution of 10 mM compound (1a) or 10 mM compound (2a) so as to have a final concentration of 100 mM, and the mixture was shaken at 30° C. for 60 minutes, and then analyzed by LC-MS. A methanol solution of 10 mM compound (la) or 10 mM compound (2a) to which an aqueous CuCl2 solution was not added was also analyzed by LC-MS.
(LC-MS measurement conditions)
Pure water to which 0.1% formic acid was added was used as a solvent A, and acetonitrile was used as a solvent B. The samples were separated on a reversed-phase column (Cosmosil 5.0C 18-MS-II 2.0×100 mm (manufactured by Nacalai Tesque, Inc.)). At this time, the flow rate was set to 0.2 ml/min, and elution was performed in a gradient mode in which the proportion of the solvent B was set to 2% until 2 minutes, and then changed from 2 to 98% from 2 to 15 minutes. The eluted sample was ionized by electrospray ionization method in a positive mode.

Candida albicans = conditions: against Candida albicans; cited from earlier work
gram-positive bacteria = conditions: against gram-positive bacteria; cited from earlier work

Row | Molecule | copper chelating action [1] | peak of the ion of the compound (free compound) in the sample in which a copper ion was added [1] | peak of the ion of the complex of the compound and a copper ion in the sample in which a copper ion was added [1] | copper chelating action compared between compounds ([1]; comparison between FIGS. 1 and 2 and FIGS. 4 and 5) | antimicrobial activity (Candida albicans) | antimicrobial activity (gram-positive bacteria)
1 | [C-]#[N+][C@@H](Cc1ccc(O)c(-c2cc(C[C@H](NC=O)C(N)=O)ccc2O)c1)C(N)=O [compound (2a)] | has a copper chelating action | small | observed | – | – | –
2 | [C-]#[N+][C@@H](Cc1ccc(O)c(-c2cc(C[C@H]([N+]#[C-])C(N)=O)ccc2O)c1)C(N)=O [compound (1a)] | has a copper chelating action | not observed | observed | stronger than that of the compound (2a) | – | –
3 | hazimycin A | – | – | – | – | antimicrobial activity | antimicrobial activity

Source: patent US20240139144A1, “COPPER CHELATOR, ANTICANCER AGENT AND PROPHYLACTIC OR THERAPEUTIC AGENT FOR WILSON'S DISEASE” (Murata Manufacturing Co., Ltd., priority 2021, published 2024)
